{
  "source": "patent US8945641B2",
  "about": "“Use of gum arabic for improving the growth and survival of bifidobacteria” (Compagnie Gervais Danone, priority 2006, dated 2015)",
  "tested_on": "Bifidobacterium animalis ssp lactis I-2494",
  "assay": "Growth and survival of bifidobacteria in a drinking yogurt with yogurt ferments, acacia gum and/or cysteine, storage at 10° C.",
  "type": "cell-based",
  "conditions": "acacia gum 0.8%",
  "text": "A drinking yogurt (2.8% of proteins) is manufactured by reconstitution of milk powder, and supplemented with 0.8% (by weight) of acacia gum, as described in Example 1 above. This type of product is chosen for the trials since it is the one that poses the biggest problems in terms of maintaining the population of bifidobacteria during storage. The reconstituted milk, supplemented with acacia gum, is heat treated as described in Example 1 above, and homogenized (150-200 bar).\nAfter cooling to 38-40° C., Streptococcus thermophilus and Lactobacillus delbrueckii ssp. Bulgaricus are added in an amount of 5×10^6 CFU/ml of Streptococcus thermophilus, 5×10^6 CFU/ml of Lactobacillus bulgaricus. Bifidobacterium animalis ssp lactis I-2494 is added in the form of a ferment for direct inoculation, such as those described in application FR 0606421 supplemented with cysteine or not. The supplemented ferment used corresponds to the addition of 1.92×10^7 CFU/ml of Bifidobacterium animalis and 6.9 mg/l of cysteine.\nAfter inoculation, the fermentation is carried out at 38° C., and monitored using the CINAC® system (YSEBAERT) until the curd settling pH is obtained (4.3<pH<4.4).\nThe curd settling is obtained by drawing off and cooling between 10-20° C., and then stirring.\nThe product is then packaged in pots and then placed in a cold tunnel (4° C.).\nThe populations are then counted at 2 h of storage at 15° C., and then 2, 8 14, 28 and 37 days of storage at 10° C.\nThe same experiment was repeated with a product containing 2.7% of proteins, containing 0.8% of acacia gum, and inoculated with a ferment supplemented with cysteine, corresponding to the addition of 1.90×10^7 CFU/ml of bifidobacteria animalis and 7 mg/l of cysteine.",
  "data": [
    {"smiles": "N[C@@H](CS)C(=O)O", "note": "[Control Cysteine, cysteine]", "values": [
      {"measurement": "Number of Bifidus at 2 h of storage", "setting": "2 h of storage at 15° C., drinking yogurt 2.8% proteins, cysteine 6.9 mg/l where present", "value": "2.1E+8", "unit": "CFU/g"},
      {"measurement": "Number of Bifidus at D +2", "setting": "D+2, repeat, product 2.7% proteins, cysteine 7 mg/l where present", "value": "1.05E+08", "unit": "CFU/g"},
      {"measurement": "Number of Bifidus at D +2", "setting": "D+2 at 10° C., 2.8% proteins, cysteine 6.9 mg/l where present", "value": "1.2E+8", "unit": "CFU/g"},
      {"measurement": "Number of Bifidus at D +8", "setting": "D+8, repeat, 2.7% proteins, cysteine 7 mg/l where present", "value": "9.00E+07", "unit": "CFU/g"},
      {"measurement": "Number of Bifidus at D +8", "setting": "D+8 at 10° C., 2.8% proteins, cysteine 6.9 mg/l where present", "value": "1.8E+8", "unit": "CFU/g"},
      {"measurement": "Number of Bifidus at D +14", "setting": "D+14, repeat, 2.7% proteins, cysteine 7 mg/l where present", "value": "7.00E+07", "unit": "CFU/g"},
      {"measurement": "Number of Bifidus at D +14", "setting": "D+14 at 10° C., 2.8% proteins, cysteine 6.9 mg/l where present", "value": "1.4E+8", "unit": "CFU/g"},
      {"measurement": "Number of Bifidus at D +21", "setting": "D+21, repeat, 2.7% proteins, cysteine 7 mg/l where present", "value": "4.00E+07", "unit": "CFU/g"},
      {"measurement": "Number of Bifidus at D +28", "setting": "D+28, repeat, 2.7% proteins, cysteine 7 mg/l where present", "value": "2.00E+07", "unit": "CFU/g"},
      {"measurement": "Number of Bifidus at D +28", "setting": "D+28 at 10° C., 2.8% proteins, cysteine 6.9 mg/l where present", "value": "8.8E+7", "unit": "CFU/g"},
      {"measurement": "Number of Bifidus at D +35", "setting": "D+35, repeat, 2.7% proteins, cysteine 7 mg/l where present", "value": "6.00E+06", "unit": "CFU/g"},
      {"measurement": "Number of Bifidus at D +37", "setting": "D+37 at 10° C., 2.8% proteins, cysteine 6.9 mg/l where present", "value": "7.8E+7", "unit": "CFU/g"},
      {"measurement": "Number of Bifidus at D +52", "setting": "D+52, repeat, 2.7% proteins, cysteine 7 mg/l where present", "value": "3.00E+06", "unit": "CFU/g"}
    ]}
  ]
}
